{
  "source": "patent US10556865B2",
  "about": "“Synergistic herbicidal composition containing certain pyridine or pyrimidine carboxylic acids and certain cereal and rice herbicides” (Dow AgroSciences, LLC, priority 2007, dated 2020)",
  "experiment_in_all_cases": "Postemergence herbicidal activity of mixtures in cereal crops (greenhouse, visual injury)",
  "assay_type_in_all_cases": "in vivo",
  "key": {"[1]": {"test_system": "canola (Brassica napus L; BRSNN)", "method_in_brief": "(§1)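 Injury ratings (0–100%) taken 20–22 days post-spray versus solvent-blank controls. Treatment: 187 L/ha track spray, 2nd–3rd leaf plants, Compound A/B with second cereal herbicide.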"}, "[2]": {"test_system": "Italian ryegrass (Lolium multiflorum L; LOLMU)", "conditions": "for LOLMU: Table 13", "method_in_brief": "as §1"}, "[3]": {"test_system": "annual bluegrass (Poa annua L; POAAN)", "method_in_brief": "as §1"}, "[4]": {"test_system": "downy brome (Bromus tectorum L; BROTE)", "method_in_brief": "as §1"}, "[5]": {"test_system": "lady's-thumb (Polygonum persicaria L; POLPE)", "method_in_brief": "as §1"}, "[6]": {"test_system": "wild mustard (Sinapis arvensis L; SINAR)", "method_in_brief": "as §1"}, "[7]": {"test_system": "kochia (Kochia scoparia L; KCHSC)", "method_in_brief": "as §1"}},
  "note": "Several values for one entry are separate records, joined by “and”; a condition that tells them apart may be missing. Equal values may be shown once.",
  "data": [
    {"smiles": "COC(=O)c1nc(-c2ccc(Cl)c(OC)c2F)nc(N)c1Cl", "note": "[Compound B Methyl, 6-amino-5-chloro-2-(4-chloro-2-fluoro-3-methoxyphenyl)pyrimidine-4-carboxylic acid methyl ester]", "values": [
      {"measurement": "BRSNN Ob", "setting": "[1]; 8.75 g/ha alone", "result": 20, "unit": "%"},
      {"measurement": "BRSNN Ob", "setting": "[1]; 17.5 g/ha alone", "result": 35, "unit": "%"},
      {"measurement": "BRSNN Ob", "setting": "[1]; 35 g/ha alone", "result": 50, "unit": "%"},
      {"measurement": "BRSNN Ob", "setting": "[1]; 70 g/ha alone", "result": 55, "unit": "%"}
    ]},
    {"smiles": "COC(=O)c1nc(-c2ccc(Cl)c(OC)c2F)cc(N)c1Cl", "note": "[Compound A Methyl, 4-amino-3-chloro-6-(4-chloro-2-fluoro-3-methoxyphenyl)pyridine-2-carboxylic acid methyl ester]", "values": [
      {"measurement": "LOLMU Ob", "setting": "[2]; 35 g/ha, Table 10", "result": 3, "unit": "%"},
      {"measurement": "LOLMU Ob", "setting": "[2]; 70 g/ha, Table 10", "result": 20, "unit": "%"},
      {"measurement": "LOLMU Ob", "setting": "[2]; 140 g/ha, Table 10", "result": 40, "unit": "%"},
      {"measurement": "POAAN Ob", "setting": "[3]; 35 g/ha, Table 9", "result": 0, "unit": "%"},
      {"measurement": "POAAN Ob", "setting": "[3]; 35 g/ha, Table 10", "result": 0, "unit": "%"},
      {"measurement": "POAAN Ob", "setting": "[3]; 70 g/ha, Table 9", "result": 3, "unit": "%"},
      {"measurement": "POAAN Ob", "setting": "[3]; 70 g/ha, Table 10", "result": 3, "unit": "%"},
      {"measurement": "POAAN Ob", "setting": "[3]; 140 g/ha, Table 9", "result": 3, "unit": "%"},
      {"measurement": "POAAN Ob", "setting": "[3]; 140 g/ha, Table 10", "result": 3, "unit": "%"},
      {"measurement": "BRSNN Ob", "setting": "[1]; 8.75 g/ha", "result": 50, "unit": "%"},
      {"measurement": "BRSNN Ob", "setting": "[1]; 17.5 g/ha", "result": 50, "unit": "%"},
      {"measurement": "BRSNN Ob", "setting": "[1]; 35 g/ha", "result": 50, "unit": "%"},
      {"measurement": "BRSNN Ob", "setting": "[1]; 70 g/ha", "result": 50, "unit": "%"},
      {"measurement": "BROTE Ob", "setting": "[4]; 35 g/ha, Table 8", "result": 0.0, "unit": "%"},
      {"measurement": "BROTE Ob", "setting": "[4]; 35 g/ha, Table 9", "result": 0, "unit": "%"},
      {"measurement": "BROTE Ob", "setting": "[4]; 35 g/ha, Table 10", "result": 0, "unit": "%"},
      {"measurement": "BROTE Ob", "setting": "[4]; 70 g/ha, Table 8", "result": 0.0, "unit": "%"},
      {"measurement": "BROTE Ob", "setting": "[4]; 70 g/ha, Table 9", "result": 0, "unit": "%"},
      {"measurement": "BROTE Ob", "setting": "[4]; 70 g/ha, Table 10", "result": 0, "unit": "%"},
      {"measurement": "BROTE Ob", "setting": "[4]; 140 g/ha, Table 8", "result": 13, "unit": "%"},
      {"measurement": "BROTE Ob", "setting": "[4]; 140 g/ha, Table 9", "result": 13, "unit": "%"},
      {"measurement": "BROTE Ob", "setting": "[4]; 140 g/ha, Table 10", "result": 13, "unit": "%"},
      {"measurement": "POLPE Ob", "setting": "[5]; 8.75 g/ha", "result": 50, "unit": "%"},
      {"measurement": "POLPE Ob", "setting": "[5]; 17.5 g/ha", "result": 50, "unit": "%"},
      {"measurement": "POLPE Ob", "setting": "[5]; 35 g/ha", "result": 65, "unit": "%"},
      {"measurement": "POLPE Ob", "setting": "[5]; 70 g/ha", "result": 70, "unit": "%"},
      {"measurement": "SINAR Ob", "setting": "[6]; 17.5 g/ha", "result": "70% and 80%"},
      {"measurement": "SINAR Ob", "setting": "[6]; 35 g/ha", "result": "80% and 85%"},
      {"measurement": "SINAR Ob", "setting": "[6]; 70 g/ha", "result": 85, "unit": "%"}
    ]},
    {"smiles": "O=C(O)c1c(Cl)ccc2cc(Cl)cnc12", "note": "[Quinclorac]", "values": [
      {"measurement": "KCHSC Ob", "setting": "[7]; 140 g/ha alone", "result": 0, "unit": "%"}
    ]},
    {"smiles": "COc1c(Cl)ccc(-c2cc(N)c(Cl)c(C(=O)O)n2)c1F", "note": "[Compound A TEA, 4-amino-3-chloro-6-(4-chloro-2-fluoro-3-methoxyphenyl)pyridine-2-carboxylic acid]", "values": [
      {"measurement": "LOLMU", "setting": "[2]; 35 g/ha", "result": 0, "unit": "%"},
      {"measurement": "LOLMU Ob", "setting": "[2]; 35 g/ha, Table 14", "result": 0, "unit": "%"},
      {"measurement": "LOLMU Ob", "setting": "[2]; 35 g/ha, Table 17", "result": 0, "unit": "%"},
      {"measurement": "LOLMU", "setting": "[2]; 70 g/ha", "result": 0, "unit": "%"},
      {"measurement": "LOLMU Ob", "setting": "[2]; 70 g/ha, Table 14", "result": 3, "unit": "%"},
      {"measurement": "LOLMU Ob", "setting": "[2]; 70 g/ha, Table 17", "result": 0, "unit": "%"},
      {"measurement": "LOLMU", "setting": "[2]; 140 g/ha", "result": 0, "unit": "%"},
      {"measurement": "LOLMU Ob", "setting": "[2]; 140 g/ha, Table 14", "result": 3, "unit": "%"},
      {"measurement": "LOLMU Ob", "setting": "[2]; 140 g/ha, Table 17", "result": 5, "unit": "%"},
      {"measurement": "POAAN Ob", "setting": "[3]; 35 g/ha, Table 16", "result": 0, "unit": "%"},
      {"measurement": "POAAN Ob", "setting": "[3]; 35 g/ha, Table 17", "result": 0, "unit": "%"},
      {"measurement": "POAAN Ob", "setting": "[3]; 70 g/ha, Table 16", "result": 0, "unit": "%"},
      {"measurement": "POAAN Ob", "setting": "[3]; 70 g/ha, Table 17", "result": 0, "unit": "%"},
      {"measurement": "POAAN Ob", "setting": "[3]; 140 g/ha, Table 16", "result": 0, "unit": "%"},
      {"measurement": "POAAN Ob", "setting": "[3]; 140 g/ha, Table 17", "result": 0, "unit": "%"},
      {"measurement": "BROTE Ob", "setting": "[4]; 35 g/ha, Table 15", "result": 0, "unit": "%"},
      {"measurement": "BROTE Ob", "setting": "[4]; 35 g/ha, Table 16", "result": 0, "unit": "%"},
      {"measurement": "BROTE Ob", "setting": "[4]; 35 g/ha, Table 18", "result": 0, "unit": "%"},
      {"measurement": "BROTE Ob", "setting": "[4]; 70 g/ha, Table 15", "result": 0, "unit": "%"},
      {"measurement": "BROTE Ob", "setting": "[4]; 70 g/ha, Table 16", "result": 0, "unit": "%"},
      {"measurement": "BROTE Ob", "setting": "[4]; 70 g/ha, Table 18", "result": 3, "unit": "%"},
      {"measurement": "BROTE Ob", "setting": "[4]; 140 g/ha, Table 15", "result": 0, "unit": "%"},
      {"measurement": "BROTE Ob", "setting": "[4]; 140 g/ha, Table 16", "result": 0, "unit": "%"},
      {"measurement": "BROTE Ob", "setting": "[4]; 140 g/ha, Table 18", "result": 3, "unit": "%"},
      {"measurement": "KCHSC Ob", "setting": "[7]; 8.75 g/ha", "result": 35, "unit": "%"},
      {"measurement": "KCHSC Ob", "setting": "[7]; 8.75 g/ha alone", "result": 65, "unit": "%"},
      {"measurement": "KCHSC Ob", "setting": "[7]; 17.5 g/ha", "result": 60, "unit": "%"},
      {"measurement": "KCHSC Ob", "setting": "[7]; 17.5 g/ha alone", "result": 77, "unit": "%"},
      {"measurement": "KCHSC Ob", "setting": "[7]; 35 g/ha", "result": 65, "unit": "%"},
      {"measurement": "KCHSC Ob", "setting": "[7]; 35 g/ha alone", "result": 92, "unit": "%"},
      {"measurement": "KCHSC Ob", "setting": "[7]; 70 g/ha", "result": 70, "unit": "%"},
      {"measurement": "KCHSC Ob", "setting": "[7]; 70 g/ha alone", "result": 99, "unit": "%"},
      {"measurement": "POLPE Ob", "setting": "[5]; 8.75 g/ha alone", "result": 30, "unit": "%"},
      {"measurement": "POLPE Ob", "setting": "[5]; 17.5 g/ha alone", "result": 41, "unit": "%"},
      {"measurement": "POLPE Ob", "setting": "[5]; 35 g/ha alone", "result": 68, "unit": "%"},
      {"measurement": "SINAR Ob", "setting": "[6]; 8.75 g/ha", "result": 35, "unit": "%"},
      {"measurement": "SINAR Ob", "setting": "[6]; 17.5 g/ha", "result": 60, "unit": "%"},
      {"measurement": "SINAR Ob", "setting": "[6]; 35 g/ha", "result": 65, "unit": "%"},
      {"measurement": "SINAR Ob", "setting": "[6]; 70 g/ha", "result": 70, "unit": "%"}
    ]}
  ]
}
